Reference: publication PMC7686313, “Phase 1 study of mTORC1/2 inhibitor sapanisertib (TAK-228) in advanced solid tumours, with an expansion phase in renal, endometrial or bladder cancer” (British Journal of Cancer, 2020)
Read-outs that look alike come from different tables or passages of the source.

Test: Plasma pharmacokinetics (LC-MS/MS)
Assay type: in vivo, human
Settings: for Cmax / AUC(0-t) / half-life / Tmax: human, plasma, oral; for half-life: read-out: t½ (converted); for Tmax: read-out: Tmax, median
Protocol: Peripheral blood was collected serially to quantify plasma levels of sapanisertib for PK analysis via validated liquid chromatography tandem mass spectrometry with an assay range of 1–1000 ng/mL (MicroConstants, San Diego, CA), during both dose-escalation and expansion phases. Blood samples were collected before each dose and 0.5, 1, 2, 4, 8 and 24 h after dosing on cycle 1, day 1 and cycle 2, day 1, in the dose-escalation phase. In the expansion phase, samples were collected predose and 2, 4 and 6 h postdose on cycle 1, day 1, and then predose and 2 h postdose on day 8, 15 or 22 of cycle 1.

[1] = 6 mg, cycle 2, day 1, QDx3dQW 6 mg
[2] = 7 mg, cycle 2, day 1, QDx5dQW 7 mg

CC(C)n1nc(-c2ccc3oc(N)nc3c2)c2c(N)ncnc21 [Sapanisertib]
Plasma accumulation with repeat dosing (any of the schedules): did not accumulate in plasma to any appreciable extent | Tmax, median (cycle 1, day 1, 2 mg): 2.0 h | Tmax, median (cycle 1, day 1, 4 mg): 2.0 h | AUC0–last [%CV] (cycle 1, day 1, 6 mg): 124.3 (NA) ng*h/mL | t½ (cycle 1, day 1, 6 mg): 6.8 h | Tmax, median (cycle 1, day 1, 7 mg): 1.5 h | Tmax, median (cycle 1, day 1, 9 mg): 1.1 h | Tmax, median (cycle 1, day 1, 12 mg): 2.0 h | Tmax, median (cycle 1, day 1, 15 mg): 2.0 h | AUC0–last [%CV] (cycle 1, day 1, 16 mg): 124.9 (NA) ng*h/mL | Tmax, median (cycle 2, day 1, QD 2 mg): 2.0 h | Tmax, median (cycle 2, day 1, QD 6 mg): 2.0 h | t½ (cycle 2, day 1, QDx3dQW 6 mg): 9.1 (NA) h | t½ (cycle 2, day 1, QDx3dQW 16 mg): 6.6 (2.29) h | Tmax, median (cycle 2, day 1, QDx5dQW 10 mg): 2.0 h | Tmax, median (cycle 2, day 1, QDx5dQW 13 mg): 2.0 h | Cmax [%CV] (cycle 2, day 1, QW 7 mg): 65.8 (NA) ng/mL | Tmax, median (cycle 2, day 1, QW 7 mg): 1 h | Cmax [%CV] (cycle 2, day 1, QW 10 mg): 36.2 (NA) ng/mL | Tmax, median (cycle 2, day 1, QW 15 mg): 2.0 h | Tmax, median (cycle 2, day 1, QW 40 mg): 2.0 h | Cmax (2 mg, cycle 1, day 1, 2 mg): 13.5 ng/mL | AUC(0-t) (2 mg, cycle 1, day 1, 2 mg, read-out: AUC0–last [%CV]): 65.4 ng·h/mL | Cmax (2 mg, cycle 2, day 1, QD 2 mg): 15.6 ng/mL | AUC(0-t) (2 mg, cycle 2, day 1, QD 2 mg, read-out: AUC0–24h [%CV]): 185 ng·h/mL | half-life (2 mg, cycle 2, day 1, QD 2 mg): 8.1 h | Cmax (4 mg, cycle 1, day 1, 4 mg): 19.1 ng/mL | AUC(0-t) (4 mg, cycle 1, day 1, 4 mg, read-out: AUC0–24h [%CV]): 178 ng·h/mL | AUC(0-t) (4 mg, cycle 1, day 1, 4 mg, read-out: AUC0–last [%CV]): 63.2 ng·h/mL | half-life (4 mg, cycle 1, day 1, 4 mg): 7.1 h | Cmax (4 mg, cycle 2, day 1, QD 4 mg): 20.3 ng/mL | AUC(0-t) (4 mg, cycle 2, day 1, QD 4 mg, read-out: AUC0–24h [%CV]): 281 ng·h/mL | AUC(0-t) (4 mg, cycle 2, day 1, QD 4 mg, read-out: AUC0–last [%CV]): 61.9 ng·h/mL | Tmax (4 mg, cycle 2, day 1, QD 4 mg): 3.8 h | half-life (4 mg, cycle 2, day 1, QD 4 mg): 10.3 h | Cmax (6 mg, cycle 1, day 1, 6 mg): 50.8 ng/mL | AUC(0-t) (6 mg, cycle 1, day 1, 6 mg, read-out: AUC0–24h [%CV]): 354 ng·h/mL | Cmax (6 mg, cycle 2, day 1, QD 6 mg): 36.9 ng/mL | AUC(0-t) (6 mg, cycle 2, day 1, QD 6 mg, read-out: AUC0–24h [%CV]): 327 ng·h/mL | half-life (6 mg, cycle 2, day 1, QD 6 mg): 7.3 h | Cmax [1]: 59.2 ng/mL | AUC(0-t) (6 mg, cycle 2, day 1, QDx3dQW 6 mg, read-out: AUC0–24h [%CV]): 777 ng·h/mL | Tmax [1]: 4 h | Cmax (7 mg, cycle 1, day 1, 7 mg): 46.7 ng/mL | AUC(0-t) (7 mg, cycle 1, day 1, 7 mg, read-out: AUC0–24h [%CV]): 327 ng·h/mL | half-life (7 mg, cycle 1, day 1, 7 mg): 6.9 h | Cmax (7 mg, cycle 2, day 1, QD 7 mg): 51.3 ng/mL | AUC(0-t) (7 mg, cycle 2, day 1, QD 7 mg, read-out: AUC0–24h [%CV]): 351 ng·h/mL | Tmax (7 mg, cycle 2, day 1, QD 7 mg): 4 h | half-life (7 mg, cycle 2, day 1, QD 7 mg): 5.63 h | Cmax [2]: 49.7 ng/mL | AUC(0-t) (7 mg, cycle 2, day 1, QDx5dQW 7 mg, read-out: AUC0–24h [%CV]): 362 ng·h/mL | half-life [2]: 6.7 h | AUC(0-t) (7 mg, cycle 2, day 1, QW 7 mg, read-out: AUC0–24h [%CV]): 351 ng·h/mL | half-life (7 mg, cycle 2, day 1, QW 7 mg): 5.6 h | Cmax (9 mg, cycle 1, day 1, 9 mg): 75.9 ng/mL | AUC(0-t) (9 mg, cycle 1, day 1, 9 mg, read-out: AUC0–24h [%CV]): 596 ng·h/mL
